Experimental data reported in patent US10961199B2 (3B Pharmaceuticals GmbH, priority 2012, dated 2021).

Assays:
CXCR2 (IL-8B) (h) = biological target: T1, CXCR2 (IL-8B) (h) (Homo sapiens, UniProt P25025); assay: ExpresSProfile CXCR2 (IL-8B) (h) agonist radioligand; format: binding; details: Reference Compound
T1 construct: Cerep P1
T1 sequence (P25025 1-360): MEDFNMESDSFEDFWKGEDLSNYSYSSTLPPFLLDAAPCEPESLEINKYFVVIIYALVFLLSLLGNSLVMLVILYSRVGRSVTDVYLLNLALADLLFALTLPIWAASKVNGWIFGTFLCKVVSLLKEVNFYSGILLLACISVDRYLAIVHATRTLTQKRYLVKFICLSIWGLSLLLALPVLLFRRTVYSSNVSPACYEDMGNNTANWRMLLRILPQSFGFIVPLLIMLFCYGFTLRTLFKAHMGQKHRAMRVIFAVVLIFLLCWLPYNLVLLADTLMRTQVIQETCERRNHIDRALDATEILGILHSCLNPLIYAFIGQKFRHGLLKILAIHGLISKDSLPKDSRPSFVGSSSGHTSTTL

NTR1 [1] = biological target: T2, NTR1 (Homo sapiens, UniProt P30989); assay: NTR1 radioligand binding assay (RLB, Cerep); set-up: host or cells: CHO cells (receptor preparation); details: CHO cells recombinantly expressing the human receptor; 0.05 nM 125I-(Tyr3-neurotensin); 60 min at 4° C.
T2 sequence (P30989 whole entry): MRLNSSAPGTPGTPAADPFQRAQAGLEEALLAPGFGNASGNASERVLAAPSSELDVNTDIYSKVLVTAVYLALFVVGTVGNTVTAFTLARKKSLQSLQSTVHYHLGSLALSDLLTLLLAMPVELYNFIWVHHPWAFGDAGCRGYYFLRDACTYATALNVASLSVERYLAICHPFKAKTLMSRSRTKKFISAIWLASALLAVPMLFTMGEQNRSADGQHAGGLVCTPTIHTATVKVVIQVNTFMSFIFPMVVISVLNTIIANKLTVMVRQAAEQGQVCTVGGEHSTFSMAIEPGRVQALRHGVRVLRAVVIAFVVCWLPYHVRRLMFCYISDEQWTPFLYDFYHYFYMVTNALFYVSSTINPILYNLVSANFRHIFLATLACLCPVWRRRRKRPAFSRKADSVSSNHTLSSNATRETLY
Protocol: Radioligand Binding Assay
In order to determine the binding affinity of compounds comprising a radiolabel for NTR1, a radioligand binding assay was carried out. A radioligand is a radioactive biochemical substance that is used for diagnosis or for research-oriented study of cellular receptor systems of the body. In […] systems it is often used to quantify the binding of a test molecule to the binding site of radioligand. The higher the affinity of the molecule, the more radioligand is displaced from the binding site. The amount of bound radioligand can be measured by scintillation counting and thereby quantified. This assay is commonly used to calculate binding constants of molecules to receptors.
The NTR1 radioligand binding assay was performed by Cerep (Celle l'Evescault, France; Catalog reference 0109) according to Vita et al., FEBS Lett., 1993, 317, 139-142. NTR1 was prepared from CHO cells recombinantly expressing the human receptor and incubated with 0.05 nM ^125I-(Tyr^3-neurotensin) and serial dilutions of the test compounds. […] The result for each test compound is expressed as IC50 concentration and provides a measure for the affinity of the test compound for NTR1.

NTR1 [2] = biological target: T2, NTR1; assay: Functional Ca2+ mobilisation assay (antagonist assay); format: cell-based; set-up: HA-tagged puromycin N-acetyltransferase-ubiquitin fusion (pExoIN2 system; HEK293 lines only) (N); host or cells: HT29 (endogenous receptor) or HEK293 stably transfected with NTR1; details: HT29 or NTR1-expressing HEK293 cells, EC80-concentration of agonist
Text: Functional Ca^2+ Mobilisation Assay
Ca^2+ ions are usually kept at nanomolar levels in the cytosol of cells, and act in a number of signal transduction pathways as second messengers. […] Changes in calcium ion concentration in standard assay protocols can be readily detected with fluorescent dyes that emit light when changes in intracellular Ca^2+ ion concentration occur. Given the transient nature of these responses, they are often read with instrumentation that has ‘inject and read’ capability.
HT29 or NTR1-expressing HEK293 cells were trypsinized and seeded into black flat clear-bottom 96-well plates (Corning, Amsterdam, The Netherlands) at 6×10^5 cells per well. […] For agonist assays, serial dilutions of agonistic substances were added to the cells loaded with dye and the change of the fluorescent signal was recorded continually for approx. 90 s using a FlexStation II (Molecular Devices, Biberach, Germany). […] For antagonist assays, cells loaded with 100 μl of Ca5-dye were pre-incubated with serial dilutions of antagonistic substances for 30 min, before the EC80-concentration of agonist was added to the cells and the change of the fluorescent signal was recorded continually for approx. 90 s. […]

B2 (h) = biological target: T3, B2 (h) (Homo sapiens, UniProt P30411); assay: ExpresSProfile B2 (h) agonist radioligand; format: binding
T3 construct: Cerep P1
T3 sequence (P30411 1-391): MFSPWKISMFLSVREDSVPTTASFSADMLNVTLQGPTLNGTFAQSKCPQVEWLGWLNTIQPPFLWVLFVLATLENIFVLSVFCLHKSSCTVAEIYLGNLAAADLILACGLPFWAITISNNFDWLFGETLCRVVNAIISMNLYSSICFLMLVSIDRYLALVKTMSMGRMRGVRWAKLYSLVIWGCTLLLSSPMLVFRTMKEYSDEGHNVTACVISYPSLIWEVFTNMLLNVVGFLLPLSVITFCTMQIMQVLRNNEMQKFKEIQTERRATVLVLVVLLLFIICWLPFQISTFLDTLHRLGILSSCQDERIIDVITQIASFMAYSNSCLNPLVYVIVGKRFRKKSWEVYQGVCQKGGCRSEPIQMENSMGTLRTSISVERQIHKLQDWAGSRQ

CCR1 (h) = biological target: T4, CCR1 (h) (Homo sapiens, UniProt P32246); assay: ExpresSProfile CCR1 (h) agonist radioligand; format: binding; details: Reference Compound; read-out: Ki Ref
T4 construct: Cerep P1
T4 sequence (P32246 1-355): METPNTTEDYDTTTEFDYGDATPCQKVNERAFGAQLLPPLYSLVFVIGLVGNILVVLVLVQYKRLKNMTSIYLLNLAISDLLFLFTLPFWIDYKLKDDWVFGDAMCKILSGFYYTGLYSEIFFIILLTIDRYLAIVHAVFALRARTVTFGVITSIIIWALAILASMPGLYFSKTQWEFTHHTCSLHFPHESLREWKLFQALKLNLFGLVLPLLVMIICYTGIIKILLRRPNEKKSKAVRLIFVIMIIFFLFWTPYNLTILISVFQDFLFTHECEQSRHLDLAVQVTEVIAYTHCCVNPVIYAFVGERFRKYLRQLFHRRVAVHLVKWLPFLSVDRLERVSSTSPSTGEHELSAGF

KV channel = assay: ExpresSProfile KV channel antagonist radioligand; format: binding; details: Reference Compound; read-out: Ki Ref
delta 2 (DOP) (h) = biological target: T5, delta 2 (DOP) (h) (Homo sapiens, UniProt P41143); assay: ExpresSProfile delta 2 (DOP) (h) agonist radioligand; format: binding; details: Reference Compound
T5 construct: Cerep (contract assay) P1
T5 sequence (P41143 whole entry): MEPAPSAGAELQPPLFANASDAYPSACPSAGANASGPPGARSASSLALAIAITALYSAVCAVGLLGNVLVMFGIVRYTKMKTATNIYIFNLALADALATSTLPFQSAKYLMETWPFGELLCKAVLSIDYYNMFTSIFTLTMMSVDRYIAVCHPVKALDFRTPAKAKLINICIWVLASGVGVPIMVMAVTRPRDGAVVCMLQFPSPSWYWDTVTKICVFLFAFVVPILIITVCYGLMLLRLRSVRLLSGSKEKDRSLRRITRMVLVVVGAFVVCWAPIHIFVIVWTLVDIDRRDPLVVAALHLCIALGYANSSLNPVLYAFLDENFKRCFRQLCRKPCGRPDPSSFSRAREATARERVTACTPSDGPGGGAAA

CCK1 (CCKA) (h) = biological target: T6, CCK1 (CCKA) (h) (Homo sapiens, UniProt P32238); assay: ExpresSProfile CCK1 (CCKA) (h) agonist radioligand; format: binding; details: Reference Compound
T6 construct: Cerep P1
T6 sequence (P32238 1-428): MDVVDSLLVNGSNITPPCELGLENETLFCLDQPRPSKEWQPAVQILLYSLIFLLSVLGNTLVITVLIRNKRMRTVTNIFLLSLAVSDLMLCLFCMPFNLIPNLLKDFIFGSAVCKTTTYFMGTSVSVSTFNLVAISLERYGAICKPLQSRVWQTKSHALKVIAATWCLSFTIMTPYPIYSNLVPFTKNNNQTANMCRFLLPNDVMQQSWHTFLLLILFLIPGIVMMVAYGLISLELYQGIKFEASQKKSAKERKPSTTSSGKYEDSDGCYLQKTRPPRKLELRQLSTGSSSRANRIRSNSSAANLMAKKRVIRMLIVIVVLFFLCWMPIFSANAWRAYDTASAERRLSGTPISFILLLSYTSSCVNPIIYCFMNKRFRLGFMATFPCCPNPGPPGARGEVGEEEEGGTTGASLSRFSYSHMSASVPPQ

IL-8: reference compound, CXCR2 (IL-8B) (h) assay
nH Ref (CXCR2 (IL-8B) (h)): 1.4
Ki (CXCR2 (IL-8B) (h); read-out: Ki Ref): 0.056 nM

COc1cccc(OC)c1-c1cc(C(=O)NC2(C(=O)O)C3CC4CC(C3)CC2C4)nn1-c1ccc(C(=O)N(CCCN)CCCN(C)C)cc1C(C)C (stereo not drawn) [(V), 2-{[1-{4-[(3-Amino-propyl)-(3-dimethylamino-propyl)-carbamoyl]-2-isopropyl-phenyl}-5-(2,6-dimethoxy-phenyl)-1H-pyrazole-3-carbonyl]-amino}-adamantane-2-carboxylic acid]
IC50 [nM] RLB (NTR1 [1]): single digit nanomolar
IC50 [nM] Ca (NTR1 [2]): single digit nanomolar

CNCCCN(C)CCCN(C)C(=O)c1ccc(-n2nc(C(=O)NC3(C(=O)O)C4CC5CC(C4)CC3C5)cc2-c2c(OC)cccc2OC)c(C(C)C)c1 (stereo not drawn) [(III), 2-({5-(2,6-Dimethoxy-phenyl)-1-[2-isopropyl-4-(methyl-{3-[methyl-(3-methylamino-propyl)-amino]-propyl}-carbamoyl)-phenyl]-1H-pyrazole-3-carbonyl}-amino)-adamantane-2-carboxylic acid]
IC50 [nM] RLB (NTR1 [1]): single digit nanomolar
IC50 [nM] Ca (NTR1 [2]): single digit nanomolar

NPC 567
nH Ref (B2 (h)): 0.9

COc1cccc(OC)c1-c1cc(C(=O)NC2(C(=O)O)C3CC4CC(C3)CC2C4)nn1-c1ccc(C(=O)N(C)CCCN(C)CCCN(C)C(=O)c2ccc(F)cc2)cc1C(C)C (stereo not drawn) [(IIIg), 2-{[5-(2,6-Dimethoxy-phenyl)-1-(4-{[3-({3-[(4-fluoro-benzoyl)-methyl-amino]-propyl}-methyl-amino)-propyl]-methyl-carbamoyl}-2-isopropyl-phenyl)-1H-pyrazole-3-carbonyl]-amino}-adamantane-2-carboxylic acid]
IC50 (NTR1 [1]): 2 nM

MIP-1alpha: reference compound, CCR1 (h) assay
Ki (CCR1 (h)): 0.041 nM

alpha-dendrotoxin
Ki (KV channel): 0.2 nM

DPDPE
nH Ref (delta 2 (DOP) (h)): 0.9

CCK-8s
nH Ref (CCK1 (CCKA) (h)): 0.6
